Data taken from patent US20120258974A1, “USE OF A2B ADENOSINE RECEPTOR ANTAGONISTS FOR TREATING HEART FAILURE AND ARRHYTHMIA IN POST-MYOCARDIAL INFARCTION PATIENTS” (GILEAD SCIENCES, INC., priority 2011, published 2012).

Experiments:
[1] = tested on: rats with MI (25 minutes coronary occlusion followed by reperfusion); assay: Histology of fibrosis in the infarct border zone, rat post-MI model (Example 6); type: in vivo; settings: 5 week post-MI; Sirius red; vs vehicle control
Method: (§1) The effects of Compound A in a rat model of post-MI remodeling and VT were determined. MI was caused by 25 minutes occlusion at the left anterior descending coronary ligation followed by reperfusion. One week later, rats were administered either vehicle or Compound A (100 mg/kg) once daily by oral gavage. Serial echocardiograms (ECHOs) to measure LV ejection fraction (LVEF), stroke volume and LV end systolic volume (LVESV) were obtained at baseline, 1 week and 5 week post-MI. Electrophysiological studies, optical mapping, histology and biomarker analysis were conducted at 5 week post-MI.
Abnormal conduction in the IBZ is due to tissue remodeling. Excessive fibrosis in the IBZ is an important substrate for VT vulnerability.

[2] = tested on: rats with MI (25 minutes coronary occlusion followed by reperfusion); assay: Conduction velocities in LV myocardium, optical mapping, rat post-MI model (Example 6); type: in vivo; settings: 5 week post-MI
Method: as §1
Abnormal electrical impulse conduction in the infarct border zone (IBZ) is important in the pathogenesis of post-MI arrhythmias. As shown in the conduction vector maps (FIG. 13A-B), the vehicle control group has much slower conduction velocity than the Compound A treated animals. To quantify the impact of Compound A on conduction properties, conduction velocities (CVs) were measured for infarct, border, and normal zones of LV myocardium. CVs in normal zones were fastest among all zones and were similar between placebo and Compound A groups (FIG. 14A). […] Finally, CVs in IBZs of both groups were in between those of non-infarct and infarct zones.

ob/ob model mice = assay: Inflammatory biomarker expression in ob/ob mice after 28-day dosing (Example 5); type: in vivo, mouse
Method: The A2B antagonist, Compound A (3 mg/kg/day or 10 mg/kg/day), was given to 6 weeks old ob/ob model mice for 28 days. At the end of the 28-day dosing, expression of a number of inflammatory biomarkers, MCP-1, IL-1b, IL-2 and IL-6, were measured in these mice as compared to control (vehicle).

[3] = tested on: CD1 mice with experimental AMI (permanent coronary artery ligation); assay: Circulating levels of cytokines and soluble adhesion molecules at day 28 (Luminex, Example 4); type: in vivo, mouse; settings: day 28 after surgery, vs vehicle
Method: Adult out-bred male CD1 mice (8-12 weeks of age) were supplied by Harlan Sprague Dawley (Indianapolis, Ind.). The experiments were conducted under the guidelines of laboratory animals for biomedical research published by National Institutes of Health (No. 85-23, revised 1996). The study protocol was approved by the Virginia Commonwealth University Institutional Animal Care and Use Committee. Experimental AMI was induced by permanent coronary artery ligation in order to induce a large non-reperfused infarct involving approximately 30% of the left ventricle and leading to an ischemic dilated cardiomyopathy (Mezzaroma et al. Proc Natl Acad Sci 2011—in press and Abbate et al. Circulation 2008; 117:2670-83). Briefly, mice were orotracheally intubated under anesthesia (pentobarbital 50 to 70 mg/kg), placed in the right lateral decubitus position, then subjected to a left thoracotomy, pericardiectomy, and ligation of the proximal left coronary artery. The chest was closed and the animals were allowed to recover. The mice surviving surgery were randomly assigned to the different groups of treatment (N=6-15 per group). Sham operations were performed wherein animals underwent the same surgical procedure without coronary artery ligation (N=4-8 per group).
The A2B AdoR antagonist, Compound A, was obtained from Gilead Sciences, Foster City, Calif. Mice were randomly assigned to treatment with Compound A (4 mg/kg) or matching dose of vehicle administered intraperitoneally (final volume 0.13 mL) every 12 hours for 14 days starting immediately after coronary artery ligation surgery. An additional group of mice received a lower dose of Compound A (2 mg/kg) to explore a dose-response relationship. Two additional groups of mice received Compound A (4 mg/kg) starting 1 hour after surgery to simulate a clinical scenario of treatment delay. […] To simulate a clinically relevant scenario in which drug treatment may occur with some delay after AMI, this example compared treatment with Compound A without delay with groups in which the A2B AdoR antagonist was given with 1 hour of delay.
The plasma concentrations of IL-1β and […], Tumor Necrosis Factor-α (TNF-α) and soluble adhesion molecules (E-selectin, Intercellular adhesion molecule-1 [ICAM-1] and vascular cellular adhesion molecule [VCAM]), that are induced by IL-1β, were determined at day 28 after surgery using Luminex kits obtained from Millipore (Billerica, Mass.) according to the manufacturer's instructions. A blood sample was obtained via a direct cardiac puncture immediately prior to killing the animals.

[4] = tested on: male mice with permanent coronary artery ligation; assay: Mouse model of myocardial infarction: ECHO, plasma biomarkers, mortality (Example 5); type: in vivo
Method: The effect of Compound A in a mouse model of myocardial infarction was also determined. Male mice underwent permanent coronary artery ligation or sham surgery. Compound A (4 mg/kg) was given i.p. BID starting immediately or 1 hr after the surgery and continued for 14 days. Trans-thoracic ECHO to measure LV end-diastolic/systolic diameter (LVEDD or LVESD), RV end-diastolic area (RVEDA) and myocardial performance index (MPI) was performed prior to surgery and after 7, 14 and 28 days. Analysis of biomarkers of tissue inflammation and injury was conducted on 28 days post-MI.

[5] = tested on: human cardiac myocytes (HCM); assay: NECA-induced IL-6 release from human cardiac myocytes (Example 7); type: cell-based; settings: NECA in combination with antagonist
Method: This example uses human cardiac myocytes to test two other A2B adenosine receptor antagonists on their effect on NECA-induced IL-6 release.
Human cardiac myocytes (HCM) were treated with NECA alone, or in combination with Compound A, Compound B (N-[5-(1-cyclopropyl-2,6-dioxo-3-propyl-2,3,6,7-tetrahydro-1H-purin-8-yl)-pyridin-2-yl]-N-ethyl-nicotinamide, also known as ATL-801) or Compound C (2-(4-benzyloxy-phenyl)-N-[5-(2,6-dioxo-1,3-dipropyl-2,3,6,7-tetrahydro-1H-purin-8-yl)-1-methyl-1H-pyrazol-3-yl]-acetamide).

[6] = tested on: rats with MI (25 minutes coronary occlusion followed by reperfusion); assay: Rat model of post-MI remodeling: serial echocardiograms (Example 6); type: in vivo
Method: as §1

[7] = 3 mg/kg/day or 10 mg/kg/day for 28 days, vs vehicle
[8] = mice with MI, 4 mg/kg i.p. BID starting immediately or 1 hr after the surgery
[9] = mice with MI, day 28 post-MI, treatment immediately after surgery

## CCCn1c(=O)c2[nH]c(-c3cnn(Cc4cccc(C(F)(F)F)c4)c3)nc2n(CC)c1=O [Compound A, 3-ethyl-1-propyl-8-(1-(3-(trifluoromethyl)benzyl)-1H-pyrazol-4-yl)-1H-purine-2,6(3H,7H)-dione]
[1]
  fibrosis in the IBZ: inhibited
[2]; vs placebo
  conduction velocities in normal zones: similar
[2]; vs placebo control
  conduction velocities in IBZs: significantly faster
  conduction velocities in infarct zones: significantly improved
ob/ob model mice; [7]
  expression of IL-1b: went down
  expression of IL-2: went down
  expression of IL-6: went down
  expression of MCP-1: went down
ob/ob model mice; 10 mg/kg/day group, 28 days
  reduction of IL-1b expression: statistically significant
  reduction of MCP-1 expression: statistically significant
[3]
  E-selectin plasma level: significantly reduced
  ICAM-1 plasma level: significantly reduced
  IL-6 plasma level: significantly reduced
  TNF-α plasma level: significantly reduced
  VCAM plasma level: significantly reduced
[4]; 4 mg/kg i.p. BID for 14 days, vehicle 42%
  mortality rate (printed: morality rate) of mice with MI during the 4 weeks: 25%
[4]; mice with MI
  increase of plasma level of sE-selectin: significantly inhibited
  increase of plasma level of sICAM: significantly inhibited
  increase of plasma level of sVCAM: significantly inhibited
[4]; [8]
  LV/RV dimensions (LVEDD, LVESD, RVEDA): significantly reduced
  MPI: reduced
[4]; [9]
  plasma concentration of IL-6: significantly reduced
  plasma concentration of ST2: significantly reduced
  plasma concentration of TNF-α: significantly reduced
[4]; sham mice
  myocardial remodeling/function in sham mice: no effect
[4]; sham-operated mice
  plasma biomarkers in sham-operated mice: no effect
[5]
  effect of NECA on HCM (IL-6 release): completely abolished
[6]; 100 mg/kg once daily oral gavage from 1 week post-MI
  increase in LVESV: significantly reduced
[6]; 1 week post-MI (start of dosing), Compound A group
  LVEF: 53.1±3.2%
[6]; 5 weeks post-MI, 100 mg/kg once daily oral gavage from 1 week post-MI, vehicle 40.7±2.2
  LVEF: 55.6±2.6%
